Assay results published in US8105636B2, “Compositions and methods for treating inflammation and inflammation-related disorders by Plectranthus amboinicus extracts” (Academia Sinica, priority 2007, dated 2012).
Read-outs that look alike come from different tables or passages of the source. Blank lines part the entries; values can stand above or below the compound they belong to.

Key:
AP-1 = target: T1, AP-1 (Homo sapiens, UniProt P01100+P05412); test: AP-1 inhibition assay (ELISA), AP-1 binding to AP-1 recognition sequence
T1 construct: (Histidine)6; Strep-tag; made in house; host or cells: bacterial cells harboring pFos-Jun
Protocol: To test the effect of the compounds of the present disclosure on AP-1 binding activity to AP-1 recognition sequence, ELISA experiments were performed.
According to implementations, binding assays were developed to identify inhibitors that block the AP-1 DNA binding activities. Traditional methods call for the preparation of nuclear extracts from TPA-stimulated cells, or require separate purification of Fos and Jun followed with in vitro dimerization to form a functional AP-1 complexes. A bicistronic expression vector that can drive the expression of two genes in one plasmid was thus designed as shown in FIG. 7. In this system, a promoter would directly drive the expression of the first gene, which is connected to the second gene via a ribosome-binding site in order to confer the expression of the second genes. Any pair of genes that form heterodimer in the cells for their physiological functions can be potentially expressed as complexes in the cells using this system.
According to implementations, the expression system of FIG. 7 was used to co-express AP-1 complexes. Accordingly, Fos (as gene 1) was tagged with a (Histidine)6 tag and Jun (as Gene 2) was tagged with Strep-tag as illustrated in FIG. 8A. […] Cross-linking experiments further confirmed the Fos-Jun complexes are dimers (FIG. 8C).
The crude extracts containing or the purified proteins were used for ELISA-based and fluorescence anisotropy-based binding analysis. Labeled oligonucleotides containing one or more copies of AP-1 consensus binding sites were used in the binding assays. Biotin-labeled oligonucleotides were used to coat streptavidin-plates in ELISA-binding assays. Rhodamine or fluorescein or other fluorophores-labeled oligonucleotides were used for fluorescence anisotropy analysis.

[1] = tested on: AP-1 transcription factors; test: ELISA-based AP-1/DNA binding assay with nuclear extracts from TPA-activated HeLa or K562 cells; conditions: fractions of PA crude extract from preparative C18 HPLC; FIG. 4
Protocol: According to implementations of experimental data shown in FIG. 5, oligonucleotide containing AP-1 binding sites were incubated nuclear extracts from TPA-stimulated K562 (K562) or HeLa (HeLa) cells. The antibodies to AP-1 complexes were added followed with horseradish peroxidase-labeled secondary antibody for ELISA-based analysis. AP-1 binding activity in the nuclear extract from TPA-stimulated cells was defined as 100% and the AP-1 binding activity of buffer only was defined as 0%.
According to implementations of experimental data shown in FIG. 6, AP-1 complexes can be formed by different proteins such as C-Jun, JunB, JunD, c-Fos, Fos-B, Fra-1 or Fra-2.
Due to the involvement of AP-1 activity in inflammatory signaling, the effects of the PA crude extract on AP-1/DNA binding activity was examined. […] The nuclear extract prepared from TPA-activated HeLa or K562 cells were used as AP-1 protein sources. After incubating with the oligonucleotides containing AP-1 binding sites, the AP-1/DNA complexes were detected with HRP-conjugated anti-c-Fos antibodies.
The PA crude extract was further fractionated with preparative HPLC using C18 column. […] This fraction was further purified by employing another C18 column using the solvent gradient from 2% acetonitrile to 90% acetonitrile containing 0.1% trifluoreoacetic acid. […]

[2] = tested on: Human umbilical vein endothelial (HUVEC) cells; test: LPS-induced cytokine/chemokine expression in HUVEC cells (Luminex); format: cell-based; parameters: unit not given here; conditions: HUVEC cells incubated with LPS, PA crude extract 1 mg/ml
Protocol: Human umbilical vein endothelial (HUVEC) cells were incubated with LPS in the absence or presence of 1 mg/ml crude extract of PA. The cytokine expression profile was determined using Luminex.

[3] = ELISA, AP-1 binding activity to AP-1 recognition sequence, read-out: IC50 (AP-1 inhibition assay)

T1 sequence (P01100 whole entry): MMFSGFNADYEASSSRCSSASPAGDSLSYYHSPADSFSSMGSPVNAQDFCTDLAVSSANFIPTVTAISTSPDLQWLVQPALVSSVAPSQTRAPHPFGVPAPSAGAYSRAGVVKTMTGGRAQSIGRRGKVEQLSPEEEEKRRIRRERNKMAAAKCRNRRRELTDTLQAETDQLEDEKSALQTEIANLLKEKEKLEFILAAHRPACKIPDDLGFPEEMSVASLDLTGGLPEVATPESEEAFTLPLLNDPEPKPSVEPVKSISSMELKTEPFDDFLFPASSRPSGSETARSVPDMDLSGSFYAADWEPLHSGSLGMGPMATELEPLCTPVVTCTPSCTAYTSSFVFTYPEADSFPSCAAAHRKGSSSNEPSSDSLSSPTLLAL
T1 sequence (P05412 whole entry): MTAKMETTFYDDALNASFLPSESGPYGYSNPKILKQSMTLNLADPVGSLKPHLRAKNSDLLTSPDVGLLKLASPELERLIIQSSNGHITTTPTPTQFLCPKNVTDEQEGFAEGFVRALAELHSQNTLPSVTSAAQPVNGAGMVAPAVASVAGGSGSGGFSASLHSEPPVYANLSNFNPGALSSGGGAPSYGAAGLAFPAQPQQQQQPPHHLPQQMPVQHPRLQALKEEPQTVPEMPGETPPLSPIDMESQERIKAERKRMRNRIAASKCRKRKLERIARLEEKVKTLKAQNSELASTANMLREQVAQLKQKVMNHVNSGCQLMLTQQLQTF

Compound: O=C(/C=C/c1ccc(O)c(O)c1)NC[C@@H](O)C(=O)Oc1cccc(O)c1O [CHM9102]
Inhibitory effects against AP-1 binding of HPLC fractions and isolated components (in words) [1]: inhibitory effects

Compound: COC(=O)C(Cc1ccc(O)c(O)c1)NC(=O)/C=C/c1ccc(O)c(O)c1 (stereo not drawn) [Compound 5]
IC50 (AP-1; [3]): 39 ± 31 µM

Compound: CCOC(=O)[C@H](Cc1ccc(O)c(O)c1)NC(=O)/C=C/c1ccc(O)c(O)c1 [Compound 6]
IC50 (AP-1; [3]): 32.5 ± 24 µM

Compound: O=C(/C=C/c1ccc(O)c(O)c1)NCCc1ccc(O)c(O)c1 [Compound 8]
IC50 (AP-1; [3]): 12.9 ± 5.9 µM

Compound: CCOP(=O)(OCC)C(Cc1ccc(O)c(O)c1)NC(=O)/C=C/c1ccc(O)c(O)c1 (stereo not drawn) [Compound 9]
IC50 (AP-1): 26.2 ± 18.9 µM

Compound: O=C(/C=C/c1cc(O)c(O)cc1[N+](=O)[O-])OC(Cc1cc(O)c(O)cc1[N+](=O)[O-])C(=O)O (stereo not drawn) [Compound 11]
IC50 (AP-1; [3]): 21.3 ± 24 µM

Compound: O=C(O)CC(NC(=O)C(Cc1ccc(O)c(O)c1)OC(=O)C=Cc1ccc(O)c(O)c1)C(=O)O (stereo not drawn) [Compound 15]
IC50 (AP-1; [3]): 34.7 ± 21.3 µM

Compound: COC(=O)C(Cc1ccc(O)c(O)c1)NC(=O)C(Cc1cc(O)c(O)cc1[N+](=O)[O-])OC(=O)C=Cc1ccc(O)c(O)c1 (stereo not drawn) [Compound 16]
IC50 (AP-1; [3]): 21.3 ± 24 µM

Compound: COC(=O)C(Cc1c[nH]c2ccccc12)NC(=O)C(Cc1ccc(O)c(O)c1)OC(=O)C=Cc1ccc(O)c(O)c1 (stereo not drawn) [Compound 17]
IC50 (AP-1; [3]): 43.4 ± 28.2 µM

Compound: O=C(C=Cc1ccc(O)c(O)c1)OC(Cc1ccc(O)c(O)c1)C(=O)NC(Cc1c[nH]c2ccccc12)C(=O)O (stereo not drawn) [Compound 18]
IC50 (AP-1; [3]): 31.9 ± 20 µM

Compound: COc1ccc2c(c1)c(CC(=O)O)c(C)n2C(=O)c1ccc(Cl)cc1 [Indomethacin]
Eotaxin expression [2]: 29.1 | GM-CSF expression [2]: 220 | IFNg expression [2]: 2.41 | IL-1a expression [2]: 13.8 | IL-1b expression [2]: 11.7 | IL-2 expression [2]: 10.1 | IL-3 expression [2]: 8.82 | IL-4 expression [2]: 11.8 | IL-5 expression [2]: 1.24 | IL-6 expression [2]: 62300 | IL-7 expression [2]: 51.5 | IL-8 expression [2]: 8030 | IL-10 expression [2]: 1.12 | IL-12 (p40) expression [2]: 16.4 | IL-12 (p70) expression [2]: 6.43 | IL-13 expression [2]: 11.1 | IL-15 expression [2]: 13.4 | IP-10 expression [2]: 24.5 | MCP-1 expression [2]: 41800 | MIP-la expression [2]: 7.57 | RANTES expression [2]: 5.48 | TNFa expression [2]: 8.14

The next lines start with results.

IC50 (AP-1; [3]): 4.3 ± 2.6 µM
Compound: O=C(O)/C(=C\c1ccc(O)c(O)c1)C(c1ccc(O)c(O)c1)C(O)C(=O)O (single isomer, unassigned) [Mena 987 (1)]

IC50 (AP-1; [3]): 9.2 ± 3.2 µM
Compound: O=C(/C=C/c1ccc(O)c(O)c1)N[C@@H](Cc1ccc(O)c(O)c1)C(=O)O [Compound 7]

IC50 (AP-1; [3]): 5.6 ± 4.2 µM
Compound: CCOC(=O)C(Cc1ccc(O)c(O)c1)OC(=O)/C=C/c1ccc(O)c(O)c1 (stereo not drawn) [Compound 10]

IC50 (AP-1; [3]): 0.8 ± 0.8 µM
Compound: COC(=O)C(Cc1ccc(O)c(O)c1)NC(=O)[C@H](Cc1ccc(O)c(O)c1)OC(=O)/C=C/c1ccc(O)c(O)c1 (stereo partly drawn) [Compound 13]

IC50 (AP-1; [3]): 1.2 ± 0.8 µM
Compound: CCOC(=O)C(Cc1ccc(O)c(O)c1)NC(=O)[C@H](Cc1ccc(O)c(O)c1)OC(=O)/C=C/c1ccc(O)c(O)c1 (stereo partly drawn) [Compound 14]

IC50 (AP-1; [3]): 8 ± 4.7 µM
Compound: COC(=O)C(Cc1ccc(O)c(O)c1)NC(=O)C(Cc1ccc(O)c(O)c1)NC(=O)C=Cc1ccc(O)c(O)c1 (stereo not drawn) [Compound 19]

IC50 (AP-1; [3]): 3.5 ± 2 µM
Compound: O=C(C=Cc1ccc(O)c(O)c1)NC(Cc1ccc(O)c(O)c1)C(=O)NC(Cc1ccc(O)c(O)c1)C(=O)O (stereo not drawn) [Compound 20]

IC50 (AP-1; [3]): 1.4 ± 0.9 µM
Compound: O=C(OC(Cc1ccc(O)c(O)c1)C(=O)O)C1=Cc2ccc(O)c(O)c2C(C(=O)OC(Cc2ccc(O)c(O)c2)C(=O)O)C1c1ccc(O)c(O)c1 (stereo not drawn) [Mena 9102 (3)]

IC50 (AP-1; [3]): 10 ± 4.1 µM
Compound: O=C(/C=C/c1ccc(O)c(O)c1)O[C@H](Cc1ccc(O)c(O)c1)C(=O)O [rosmarinic acid (4), rosmarinic acid]
Inhibitory effects against AP-1 binding of HPLC fractions and isolated components (in words) [1]: inhibitory effects
